In ChEMBL document CHEMBL5614440, “Development of Novel Indole-Based Covalent Inhibitors of TEAD as Potential Antiliver Cancer Agents” (J Med Chem, 2024):
pIC50: −log10 of the molar value. Values belong to the compound of their own block, whether it stands above or below them. Active and inactive are the calls of the source. The calls are words filed in the database; no cut-off is given here.

Experiments:
HEK293T = experiment: Inhibition of TEAD (unknown origin) expressed in HEK293T cells transfected with 8xGTIIC-luciferase at 10 uM by dual luciferase reporter assay relative to control; assay type: cell-based; conditions: Homo sapiens
Huh-7 [1] = experiment: Antiproliferative activity against human Huh-7 cells incubated for 3 days by CCK8 assay; assay type: functional, cell-based; conditions: Huh-7, 72 h
Huh-7 [2] = experiment: (§1) Inhibition of TEAD transcription in human Huh-7 cells transfected with 8xGTIIC-luciferase by dual luciferase reporter assay; assay type: cell-based
Huh-7 [3] = experiment: Inhibition of TEAD transcription in human Huh-7 cells transfected with 8xGTIIC-luciferase assessed as downregulation of CTGF protein expression by Western blotting analysis; assay type: cell-based; conditions: dose 1.25-15 µM
[4] = as §1; assay type: cell-based
Huh-7 [5] = experiment: Inhibition of TEAD transcription in human Huh-7 cells transfected with 8xGTIIC-luciferase assessed as downregulation of CYR61 mRNA expression incubated for 24 hrs by RT-PCR analysis; assay type: cell-based; conditions: dose 0.5-15 µM
HepG2 [6] = experiment: Inhibition of TEAD transcription in human HepG2 cells assessed as downregulation of CTGF mRNA expression incubated for 24 hrs by RT-PCR analysis; assay type: cell-based
HepG2 [7] = experiment: Inhibition of TEAD transcription in human HepG2 cells assessed as downregulation of CYR61 mRNA expression incubated for 24 hrs by RT-PCR analysis; assay type: cell-based; conditions: dose 0.5-15 µM
HepG2 [8] = experiment: Antiproliferative activity against human HepG2 cells incubated for 3 days by CCK8 assay; assay type: functional, cell-based; conditions: HepG2, 72 h
Hs-578T = experiment: Antiproliferative activity against human Hs-578T cells incubated for 3 days by CCK8 assay; assay type: functional, cell-based; conditions: 72 h
NCI-H226 [9] = experiment: Antiproliferative activity against human NCI-H226 cells incubated for 3 days by CCK8 assay; assay type: functional, cell-based; conditions: NCI-H226, 72 h
NCI-H2452 = experiment: Antiproliferative activity against human NCI-H2452 cells incubated for 3 days by CCK8 assay; assay type: functional, cell-based; conditions: NCI-H2452, 72 h
[10] = biological target: Transcriptional enhancer factor TEF-4 (Homo sapiens) (UniProt Q15562); experiment: Covalent binding affinity to human TEAD2-YBD (217 to 447 residues) assessed as change in protein mass at 50 uM incubated for 15 hrs by mass spectrometry analysis
Sequence of Transcriptional enhancer factor TEF-4 (Homo sapiens) (Q15562 whole entry, the tested form may be a part): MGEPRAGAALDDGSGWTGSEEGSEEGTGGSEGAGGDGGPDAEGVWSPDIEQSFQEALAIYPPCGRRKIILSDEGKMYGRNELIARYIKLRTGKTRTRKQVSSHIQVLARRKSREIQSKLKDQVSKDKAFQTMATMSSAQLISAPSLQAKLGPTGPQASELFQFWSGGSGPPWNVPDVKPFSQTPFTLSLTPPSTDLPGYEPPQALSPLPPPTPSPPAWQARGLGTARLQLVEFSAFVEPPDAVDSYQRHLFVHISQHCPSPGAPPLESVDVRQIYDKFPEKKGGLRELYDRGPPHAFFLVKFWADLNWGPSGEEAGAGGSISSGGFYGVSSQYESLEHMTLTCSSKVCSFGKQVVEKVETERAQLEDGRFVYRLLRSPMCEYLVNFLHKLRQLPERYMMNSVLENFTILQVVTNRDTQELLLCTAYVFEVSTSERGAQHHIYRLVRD

Homo sapiens = species on record: Homo sapiens; experiment: Covalent binding affinity to human TEAD2-YBD C380S mutant variant assessed as change in protein mass at 50 uM incubated for 15 hrs by mass spectrometry analysis
NCI-H226 [11] = experiment: Disruption of YAP to TEAD protein-protein interaction in human NCI-H226 cells at 1 uM incubated for 24 hrs by Coimmunoprecipitation method; assay type: cell-based
NCI-H226 [12] = experiment: Disruption of YAP to TEAD protein-protein interaction in human NCI-H226 cells at 2.5 uM incubated for 24 hrs by Coimmunoprecipitation method; assay type: cell-based
NCI-H226 [13] = experiment: Disruption of TAZ to TEAD protein-protein interaction in human NCI-H226 cells at 1 to 2.5 uM incubated for 24 hrs by Coimmunoprecipitation method; assay type: cell-based; conditions: dose 1-2.5 µM
Huh-7 [14] = experiment: Induction of cell cycle arrest in human Huh-7 cells assessed as increase in G1 phase cells at 5 to 10 uM incubated for 48 hrs by propidium iodide staining based flow cytometry (reference value: 36.4%); assay type: functional; conditions: dose 5-10 µM
Huh-7 [15] = experiment: Induction of cell cycle arrest in human Huh-7 cells assessed as decrease in S phase cells at 5 to 10 uM incubated for 48 hrs by propidium iodide staining based flow cytometry; assay type: functional; conditions: dose 5-10 µM
Huh-7 [16] = experiment: Induction of cell cycle arrest in human Huh-7 cells assessed as decrease in G2 phase cells at 5 to 10 uM incubated for 48 hrs by propidium iodide staining based flow cytometry; assay type: functional; conditions: dose 5-10 µM
HepG2 [17] = experiment: Induction of cell cycle arrest in human HepG2 cells assessed as accumulation of G1 phase cells at 5 to 10 uM incubated for 48 hrs by propidium iodide staining based flow cytometry; assay type: functional; conditions: dose 5-10 µM
Huh-7 [18] = experiment: Induction of apoptosis in human Huh-7 cells assessed as total apoptotic cells at 5 uM incubated for 48 hrs by Annexin V/PI staining based flow cytometry analysis; assay type: functional
Huh-7 [19] = experiment: Induction of apoptosis in human Huh-7 cells assessed as total apoptotic cells at 10 uM incubated for 48 hrs by Annexin V/PI staining based flow cytometry analysis; assay type: functional
HepG2 [20] = experiment: Induction of apoptosis in human HepG2 cells assessed as total apoptotic cells at 10 uM incubated for 48 hrs by Annexin V/PI staining based flow cytometry analysis; assay type: functional
Huh-7 [21] = experiment: Antitumor activity against human Huh-7 cells xenografted in NSG mouse assessed as tumor growth inhibition at 50 mg/kg, ip administered every 3 days for 24 days and measured every 3 days; assay type: functional; conditions: Huh-7, 576 h, time 24 day, read-out: TGI
Huh-7 [22] = experiment: Antitumor activity against human Huh-7 cells xenografted in NSG mouse assessed as tumor growth inhibition at 50 mg/kg, ip administered every 3 days for 24 days in presence of sorafenib and measured every 3 days; assay type: functional; conditions: Huh-7, 576 h, time 24 day, read-out: TGI
[23] = Toxicity in NSG mouse assessed as change in body weight at 50 mg/kg, ip administered every 3 days for 24 days in presence of sorafenib and measured every 3 days; assay type: organism-based; conditions: in vivo, 576 h, time 24 day
Mus musculus [24] = experiment: In vivo inhibition of TEAD transcription in NSG mouse xenografted with human Huh-7 cells assessed as decrease in CTGF expression at 50 mg/kg, ip administered every 3 days for 24 days by Western blotting analysis; assay type: functional, organism-based; conditions: time 24.0 day
Mus musculus [25] = experiment: In vivo inhibition of TEAD transcription in NSG mouse xenografted with human Huh-7 cells assessed as decrease in CYR61 expression at 50 mg/kg, ip administered every 3 days for 24 days by Western blotting analysis; assay type: functional, organism-based; conditions: time 24.0 day
Hepatoblastoma cell line [26] = experiment: Antitumor activity against C57BL/6 mouse hepatoblastoma assessed as reduction in tumor occurrence at 25 mg/kg, ip administered twice a week for 9 weeks and measured after 2 days post last drug treatment; assay type: functional, organism-based; conditions: time 65.0 day
Hepatoblastoma cell line [27] = experiment: Antitumor activity against C57BL/6 mouse hepatoblastoma assessed as reduction in tumor size at 25 mg/kg, ip administered twice a week for 9 weeks and measured after 2 days post last drug treatment; assay type: functional, organism-based; conditions: time 65.0 day
Hepatoblastoma cell line [28] = experiment: Antitumor activity against C57BL/6 mouse hepatoblastoma assessed as reduction in number of proliferating cells at 25 mg/kg, ip administered twice a week for 9 weeks and measured after 2 days post last drug treatment by Ki67 staining based immunohistochemistry assay; assay type: functional, organism-based; conditions: time 65.0 day
Mus musculus [29] = experiment: Downregulation of Ccnd1 mRNA expression in C57BL/6 mouse hepatoblastoma tumor at 25 mg/kg, ip administered twice a week for 9 weeks and measured after 2 days post last drug treatment by qRT-PCR analysis; assay type: functional, organism-based; conditions: time 65.0 day
Mus musculus [30] = experiment: Downregulation of CTGF mRNA expression in C57BL/6 mouse hepatoblastoma tumor at 25 mg/kg, ip administered twice a week for 9 weeks and measured after 2 days post last drug treatment by qRT-PCR analysis; assay type: functional, organism-based; conditions: time 65.0 day
Mus musculus [31] = experiment: Downregulation of Cyr61 mRNA expression in C57BL/6 mouse hepatoblastoma tumor at 25 mg/kg, ip administered twice a week for 9 weeks and measured after 2 days post last drug treatment by qRT-PCR analysis; assay type: functional, organism-based; conditions: time 65.0 day
Mus musculus [32] = experiment: Downregulation of Afp mRNA expression in C57BL/6 mouse hepatoblastoma tumor at 25 mg/kg, ip administered twice a week for 9 weeks and measured after 2 days post last drug treatment by qRT-PCR analysis; assay type: functional, organism-based; conditions: time 65.0 day
Mus musculus [33] = experiment: Downregulation of Gpc3 mRNA expression in C57BL/6 mouse hepatoblastoma tumor at 25 mg/kg, ip administered twice a week for 9 weeks and measured after 2 days post last drug treatment by qRT-PCR analysis; assay type: functional, organism-based; conditions: time 65.0 day
Mus musculus [34] = experiment: Downregulation of CTGF protein expression in C57BL/6 mouse hepatoblastoma tumor at 25 mg/kg, ip administered twice a week for 9 weeks and measured after 2 days post last drug treatment by Western blotting analysis; assay type: functional, organism-based; conditions: time 65.0 day
Mus musculus [35] = experiment: Downregulation of Cyr61 protein expression in C57BL/6 mouse hepatoblastoma tumor at 25 mg/kg, ip administered twice a week for 9 weeks and measured after 2 days post last drug treatment by Western blotting analysis; assay type: functional, organism-based; conditions: time 65.0 day
[36] = Half life in Sprague-Dawley rat at 50 mg/kg, ip measured upto 24 hrs by LC-MS/MS analysis; assay type: ADME, organism-based; conditions: in vivo
[37] = Tmax in Sprague-Dawley rat at 50 mg/kg, ip measured upto 24 hrs by LC-MS/MS analysis; assay type: ADME, organism-based; conditions: in vivo
[38] = Cmax in Sprague-Dawley rat at 50 mg/kg, ip measured upto 24 hrs by LC-MS/MS analysis; assay type: ADME, organism-based; conditions: in vivo
[39] = AUClast in Sprague-Dawley rat at 50 mg/kg, ip measured upto 24 hrs by LC-MS/MS analysis; assay type: ADME, organism-based; conditions: in vivo
[40] = AUCinfinity in Sprague-Dawley rat at 50 mg/kg, ip measured upto 24 hrs by LC-MS/MS analysis; assay type: ADME, organism-based; conditions: in vivo
[41] = MRTinfinity in Sprague-Dawley rat at 50 mg/kg, ip measured upto 24 hrs by LC-MS/MS analysis; assay type: ADME, organism-based; conditions: in vivo

pIC50 (Huh-7 [1]): 4.52
SMILES: C=CC(=O)NCc1c[nH]c2cc(Cl)c(OCc3ccc4ccccc4c3)cc12
inhibition (HEK293T): 1.5%

pIC50 (Huh-7 [1]): 5.92
SMILES: O=C(CCl)NCc1c[nH]c2cc(Cl)c(OCc3ccccc3)cc12
inhibition (HEK293T): 97.8%
inhibition (Huh-7 [2]): Dose-Dependent Effect
inhibition (Huh-7 [3]): Dose-Dependent Effect

pIC50 (Huh-7 [1]): 5.39
SMILES: N#C/C(=C\c1c[nH]c2cc(Cl)c(OCc3ccc4ccccc4c3)cc12)C(N)=O
inhibition (HEK293T): 47.3%

pIC50 (Huh-7 [1]): 4.77
SMILES: O=C(CCl)c1c[nH]c2cc(Cl)c(OCc3ccc(C(F)(F)F)cc3)cc12

pIC50 (Huh-7 [1]): < 4.30
SMILES: N#C/C(=C\c1c[nH]c2cc(Cl)c(OCc3ccccc3)cc12)C(N)=O

pIC50 (Huh-7 [1]): 4.16
SMILES: N#C/C(=C\c1c[nH]c2cc(Cl)c(OCc3ccc4ccccc4n3)cc12)C(N)=O

pIC50 (Huh-7 [1]): 6.05
pIC50 [4]: 6.20
pIC50 (HepG2 [8]): 5.62
pIC50 (NCI-H226 [9]): 6.40
pIC50 (NCI-H2452): 4.96
Activity [10]: Active
Activity (Homo sapiens): inactive
half-life [36]: 6.49 h
Tmax [37]: 2.67 h
Cmax [38]: 28 ng/mL
AUC(0-t) at 24 h [39]: 175 ng·h/mL
AUC(0-inf) [40]: 208 ng·h/mL
MRT inf [41]: 9.65 h
SMILES: O=C(CCl)c1c[nH]c2cc(Cl)c(OCc3cccc(C(F)(F)F)c3)cc12
inhibition (HEK293T): 93.6%
inhibition (Huh-7 [2]): Dose-Dependent Effect
inhibition (Huh-7 [3]): Dose-Dependent Effect
inhibition (Huh-7 [5]): Dose-Dependent Effect
inhibition (HepG2 [6]): Dose-Dependent Effect
inhibition (HepG2 [7]): Dose-Dependent Effect
pIC50 (Hs-578T): 5.59
Activity (NCI-H226 [11]): Active
Activity (NCI-H226 [12]): 100%
Activity (NCI-H226 [13]): inactive
Activity (Huh-7 [14]): 58.2%
Activity (Huh-7 [15]): Active
Activity (Huh-7 [16]): Active
Activity (HepG2 [17]): Active
Activity (Huh-7 [18]): 66.8%
Activity (Huh-7 [19]): 83.5%
Activity (HepG2 [20]): 69%
inhibition in vivo at 50 mg/kg (Huh-7 [21]): 75%
inhibition in vivo at 50 mg/kg (Huh-7 [22]): 93%
Activity [23]: Non-Toxic
inhibition (Mus musculus [24]): Active
inhibition (Mus musculus [25]): Active
Activity (Hepatoblastoma cell line [26]): Active
Activity (Hepatoblastoma cell line [27]): Active
Activity (Hepatoblastoma cell line [28]): Active
Activity (Mus musculus [29]): Active
Activity (Mus musculus [30]): Active
Activity (Mus musculus [31]): Active
Activity (Mus musculus [32]): Active
Activity (Mus musculus [33]): Active
Activity (Mus musculus [34]): Active
Activity (Mus musculus [35]): Active
